The source of these data is patent publication US20230257396A1, “MACROCYCLES AND THEIR USE” (BLOSSOMHILL THERAPEUTICS, INC., priority 2020, published 2023).

Common to all, as to experiment: KINOMEscan kinase binding assay (Eurofins/DiscoveRx), % Ctrl
Assay [1] addresses T1, kinases (Homo sapiens, UniProt P00519, F317L).
T1 construct: purchased Eurofins/DiscoveRx; host or cells: E. coli BL21-derived host (T7 phage display) for most kinases; HEK-293 for the rest
The conditions noted are these: 1 μM. The procedure, abridged: (§1)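 Competition binding: DNA- or phage-tagged kinases (T7 phage in E. coli BL21, or HEK-293-expressed) with immobilized biotinylated ligand beads and test compound, 1 h at room temperature. Bead-bound kinase eluted and quantified by qPCR; % Ctrl = (compound − positive control)/(negative control − positive control) ×100 at a single compound concentration.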

For assay [2], the target named is T2, kinases (Homo sapiens, UniProt P00519, H396P).
T2 construct: purchased Eurofins/DiscoveRx; host or cells: E. coli BL21-derived host (T7 phage display) for most kinases; HEK-293 for the rest
The conditions noted are these: 1 μM. The procedure, abridged: as §1

In assay [3] the target is T3, kinases (Homo sapiens, UniProt P07949, M918T).
T3 construct: purchased Eurofins/DiscoveRx; host or cells: E. coli BL21-derived host (T7 phage display) for most kinases; HEK-293 for the rest
The conditions noted are these: 1 μM; RET(M918T). The procedure, abridged:
as §1

The target of assay [4] is T4, kinases (Homo sapiens, UniProt P00519).
T4 construct: purchased Eurofins/DiscoveRx; host or cells: E. coli BL21-derived host (T7 phage display) for most kinases; HEK-293 for the rest
The conditions noted are these: 1 μM. In short, it runs like this:
as §1

In assay [5] the target is T5, kinases (Homo sapiens, UniProt P16234).
T5 construct: purchased Eurofins/DiscoveRx; host or cells: E. coli BL21-derived host (T7 phage display) for most kinases; HEK-293 for the rest
As to conditions: 1 μM; PDGFRA. The procedure, abridged: as §1

Assay [6] has as its target T6, kinases (Homo sapiens, UniProt P10721, L576P).
T6 construct: purchased Eurofins/DiscoveRx; host or cells: E. coli BL21-derived host (T7 phage display) for most kinases; HEK-293 for the rest
As to conditions: 1 μM; KIT(L576P). In short, it runs like this: as §1

In assay [7] the target is T7, kinases (Homo sapiens, UniProt P36888, R834Q).
T7 construct: purchased Eurofins/DiscoveRx; host or cells: E. coli BL21-derived host (T7 phage display) for most kinases; HEK-293 for the rest
T7 sequence (P36888 27-993 R834Q): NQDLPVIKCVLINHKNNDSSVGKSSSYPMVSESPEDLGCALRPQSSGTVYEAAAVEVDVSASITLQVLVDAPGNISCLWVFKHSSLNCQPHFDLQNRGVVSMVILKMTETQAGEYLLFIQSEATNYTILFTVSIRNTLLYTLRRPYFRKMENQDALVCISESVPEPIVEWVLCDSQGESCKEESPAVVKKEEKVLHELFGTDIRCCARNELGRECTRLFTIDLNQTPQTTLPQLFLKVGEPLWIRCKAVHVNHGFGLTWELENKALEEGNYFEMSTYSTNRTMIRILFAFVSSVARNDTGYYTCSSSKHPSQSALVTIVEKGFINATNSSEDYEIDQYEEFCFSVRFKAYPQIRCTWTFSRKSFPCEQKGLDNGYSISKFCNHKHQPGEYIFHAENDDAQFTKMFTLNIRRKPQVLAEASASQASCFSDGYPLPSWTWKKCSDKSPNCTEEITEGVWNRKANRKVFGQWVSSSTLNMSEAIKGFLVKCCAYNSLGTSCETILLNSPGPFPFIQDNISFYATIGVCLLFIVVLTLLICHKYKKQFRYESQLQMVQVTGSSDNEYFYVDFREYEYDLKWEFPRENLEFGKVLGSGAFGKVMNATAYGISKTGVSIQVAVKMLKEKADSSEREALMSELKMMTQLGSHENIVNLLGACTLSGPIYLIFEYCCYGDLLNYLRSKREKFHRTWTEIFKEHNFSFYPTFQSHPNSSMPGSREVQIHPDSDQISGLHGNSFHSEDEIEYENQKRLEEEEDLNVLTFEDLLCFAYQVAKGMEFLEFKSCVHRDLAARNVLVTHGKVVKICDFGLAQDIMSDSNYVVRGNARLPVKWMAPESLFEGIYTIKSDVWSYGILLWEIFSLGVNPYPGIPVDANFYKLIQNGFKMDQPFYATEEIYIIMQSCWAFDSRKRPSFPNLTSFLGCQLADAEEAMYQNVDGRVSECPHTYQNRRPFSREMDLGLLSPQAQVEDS
The conditions noted are these: 1 μM; FLT3(R834Q). In short, it runs like this:
as §1

Assay [8] deals with T8, kinases (Homo sapiens, UniProt P00533, G719C).
T8 construct: purchased Eurofins/DiscoveRx; host or cells: E. coli BL21-derived host (T7 phage display) for most kinases; HEK-293 for the rest
The conditions noted are these: 1 μM; EGFR(G719C). In short, it runs like this: as §1

T6 sequence (P10721 26-976 L576P): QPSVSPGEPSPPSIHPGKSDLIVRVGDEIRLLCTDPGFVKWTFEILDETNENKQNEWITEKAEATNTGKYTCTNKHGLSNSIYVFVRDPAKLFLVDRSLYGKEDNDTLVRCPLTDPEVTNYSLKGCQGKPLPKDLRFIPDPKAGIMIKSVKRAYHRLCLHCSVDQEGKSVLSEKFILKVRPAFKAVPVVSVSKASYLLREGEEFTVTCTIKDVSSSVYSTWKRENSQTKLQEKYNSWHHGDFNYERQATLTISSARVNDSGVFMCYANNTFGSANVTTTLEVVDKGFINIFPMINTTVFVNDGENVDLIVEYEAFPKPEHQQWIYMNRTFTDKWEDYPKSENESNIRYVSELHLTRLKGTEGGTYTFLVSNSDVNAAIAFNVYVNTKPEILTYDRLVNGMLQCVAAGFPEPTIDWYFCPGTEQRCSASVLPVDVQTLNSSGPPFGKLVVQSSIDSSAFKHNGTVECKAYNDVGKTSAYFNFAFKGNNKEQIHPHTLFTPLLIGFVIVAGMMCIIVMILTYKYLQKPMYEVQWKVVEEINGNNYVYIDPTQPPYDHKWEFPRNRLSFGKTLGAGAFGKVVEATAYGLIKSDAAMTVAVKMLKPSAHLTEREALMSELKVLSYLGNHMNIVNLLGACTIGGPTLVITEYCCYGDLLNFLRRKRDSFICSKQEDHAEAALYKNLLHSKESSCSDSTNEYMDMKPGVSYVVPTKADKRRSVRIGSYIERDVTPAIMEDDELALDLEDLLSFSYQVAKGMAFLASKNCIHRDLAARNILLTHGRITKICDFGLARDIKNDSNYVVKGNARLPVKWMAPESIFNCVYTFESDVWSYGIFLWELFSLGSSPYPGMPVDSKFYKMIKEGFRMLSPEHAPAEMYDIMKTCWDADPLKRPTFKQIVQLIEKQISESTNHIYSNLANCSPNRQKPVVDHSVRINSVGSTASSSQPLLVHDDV
T3 sequence (P07949 29-1114 M918T): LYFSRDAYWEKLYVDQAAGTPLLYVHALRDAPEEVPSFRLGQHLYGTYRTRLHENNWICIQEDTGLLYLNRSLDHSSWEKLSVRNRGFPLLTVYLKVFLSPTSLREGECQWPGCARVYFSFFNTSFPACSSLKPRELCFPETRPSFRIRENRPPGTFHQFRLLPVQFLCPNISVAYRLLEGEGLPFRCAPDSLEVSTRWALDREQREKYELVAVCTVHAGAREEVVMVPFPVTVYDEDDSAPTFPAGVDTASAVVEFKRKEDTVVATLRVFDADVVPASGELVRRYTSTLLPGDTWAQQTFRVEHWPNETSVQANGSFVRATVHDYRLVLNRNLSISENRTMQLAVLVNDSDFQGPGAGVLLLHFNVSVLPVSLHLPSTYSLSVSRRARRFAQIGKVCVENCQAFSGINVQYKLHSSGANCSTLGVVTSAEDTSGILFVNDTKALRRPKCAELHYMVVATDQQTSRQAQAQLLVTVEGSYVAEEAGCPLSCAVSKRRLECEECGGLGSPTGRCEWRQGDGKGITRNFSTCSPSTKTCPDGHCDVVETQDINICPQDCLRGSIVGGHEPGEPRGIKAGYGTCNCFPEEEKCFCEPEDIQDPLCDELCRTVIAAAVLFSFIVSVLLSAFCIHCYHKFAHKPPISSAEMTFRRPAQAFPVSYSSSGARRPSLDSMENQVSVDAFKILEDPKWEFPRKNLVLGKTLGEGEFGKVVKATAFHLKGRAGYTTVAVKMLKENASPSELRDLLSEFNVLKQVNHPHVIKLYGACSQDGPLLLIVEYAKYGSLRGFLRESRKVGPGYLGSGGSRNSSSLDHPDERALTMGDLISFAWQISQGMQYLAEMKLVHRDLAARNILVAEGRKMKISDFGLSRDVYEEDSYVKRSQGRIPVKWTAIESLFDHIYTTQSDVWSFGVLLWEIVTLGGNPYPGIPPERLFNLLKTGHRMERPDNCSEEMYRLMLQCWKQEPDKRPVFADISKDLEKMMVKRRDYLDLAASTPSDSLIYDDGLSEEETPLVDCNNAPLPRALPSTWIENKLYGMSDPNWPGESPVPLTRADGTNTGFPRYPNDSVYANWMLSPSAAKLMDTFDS
T5 sequence (P16234 24-1089): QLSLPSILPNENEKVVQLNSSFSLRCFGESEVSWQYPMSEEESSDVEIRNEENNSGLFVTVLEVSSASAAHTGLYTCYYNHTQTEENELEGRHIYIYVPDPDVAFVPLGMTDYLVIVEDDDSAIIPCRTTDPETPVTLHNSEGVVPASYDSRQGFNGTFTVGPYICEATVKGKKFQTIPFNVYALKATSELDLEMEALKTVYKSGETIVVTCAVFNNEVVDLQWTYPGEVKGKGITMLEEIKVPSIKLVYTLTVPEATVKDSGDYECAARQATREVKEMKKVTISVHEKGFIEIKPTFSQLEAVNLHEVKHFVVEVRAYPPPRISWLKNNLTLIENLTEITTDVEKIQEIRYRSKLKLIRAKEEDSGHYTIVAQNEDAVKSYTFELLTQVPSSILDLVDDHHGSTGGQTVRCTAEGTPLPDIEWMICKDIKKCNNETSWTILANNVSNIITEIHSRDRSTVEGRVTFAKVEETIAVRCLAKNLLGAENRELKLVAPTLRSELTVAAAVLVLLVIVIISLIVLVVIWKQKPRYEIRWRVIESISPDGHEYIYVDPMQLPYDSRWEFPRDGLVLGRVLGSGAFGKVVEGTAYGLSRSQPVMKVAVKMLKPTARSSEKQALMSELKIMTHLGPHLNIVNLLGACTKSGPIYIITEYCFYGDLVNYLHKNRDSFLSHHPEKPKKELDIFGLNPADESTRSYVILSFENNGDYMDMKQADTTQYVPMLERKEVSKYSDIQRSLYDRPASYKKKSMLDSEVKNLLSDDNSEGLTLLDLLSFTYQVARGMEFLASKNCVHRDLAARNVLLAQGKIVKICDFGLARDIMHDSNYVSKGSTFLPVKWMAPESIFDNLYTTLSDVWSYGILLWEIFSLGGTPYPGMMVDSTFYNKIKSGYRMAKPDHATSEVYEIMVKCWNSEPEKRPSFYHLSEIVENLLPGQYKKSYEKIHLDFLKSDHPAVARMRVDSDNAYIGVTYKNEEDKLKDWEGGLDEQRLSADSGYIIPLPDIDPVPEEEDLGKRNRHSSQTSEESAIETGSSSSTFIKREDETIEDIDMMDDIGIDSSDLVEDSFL

As for `CNC(=O)[C@H]1CN(C)C(=O)c2cc(C)[nH]c2/C=C2\C(=O)Nc3cc(Cl)c(cc32)OCCO1` [Ex. 135, [7R,16a(17)Z]-19-chloro-N,2,5-trimethyl-4,16-dioxo-4,5,6,7,9,10,15,16-octahydro-1H-12,14-(ethanediylidene)dipyrrolo[3,2-i:3′,4′-l][1,4,7]dioxazacyclopentadecine-7-carboxamide], in assay [1], the “% Ctrl, ABL1(F317L)-nonphosphorylated” value was 78 % Ctrl and the “% Ctrl, ABL1(F317L)-phosphorylated” value amounted to 64 % Ctrl. For the same molecule, in assay [2], the “% Ctrl, ABL1(H396P)-nonphosphorylated” value was 29 % Ctrl and the “% Ctrl, ABL1(H396P)-phosphorylated” value amounted to 54 % Ctrl. In addition, the “% Ctrl, RET(M918T)” value in assay [3] worked out at 36 % Ctrl. For the same molecule, in assay [4], the “% Ctrl, ABL1-nonphosphorylated” value amounted to 33 % Ctrl and the “% Ctrl, ABL1-phosphorylated” value turned out to be 58 % Ctrl. For the same molecule, the “% Ctrl, PDGFRA” value in assay [5] was 79 % Ctrl. Also, the “% Ctrl, KIT(L576P)” value in assay [6] turned out to be 8.5 % Ctrl. For the same molecule, the “% Ctrl, FLT3(R834Q)” value in assay [7] amounted to 63 % Ctrl. In assay [8], the “% Ctrl, EGFR(G719C)” value stood at 82 % Ctrl.

Take `Cc1cc2c([nH]1)/C=C1\C(=O)Nc3ccc(cc31)-c1cnn(C)c1COCCN(C)C2=O` [Ex. 124, [3a(4)Z]-6,9,14-trimethyl-10,11,13,14-tetrahydro-2H-1,17-(ethanediylidene)pyrazolo[4,3-m]dipyrrolo[3,2-f:3′,4′-i][1,4]oxazacyclopentadecine-3,8(5H,9H)-dione]: in assay [1], the “% Ctrl, ABL1(F317L)-nonphosphorylated” value amounted to 0 % Ctrl and the “% Ctrl, ABL1(F317L)-phosphorylated” value is on record as 0.2 % Ctrl. Further, in assay [2], the “% Ctrl, ABL1(H396P)-nonphosphorylated” value is 0.5 % Ctrl and the “% Ctrl, ABL1(H396P)-phosphorylated” value is on record as 0 % Ctrl. Also, the “% Ctrl, RET(M918T)” value in assay [3] came out at 0 % Ctrl. Further, in assay [4], the “% Ctrl, ABL1-nonphosphorylated” value was 0 % Ctrl and the “% Ctrl, ABL1-phosphorylated” value was 0 % Ctrl. Moreover, the “% Ctrl, PDGFRA” value in assay [5] worked out at 7.9 % Ctrl. For the same molecule, the “% Ctrl, KIT(L576P)” value in assay [6] is recorded as 4.2 % Ctrl. The “% Ctrl, FLT3(R834Q)” value in assay [7] came out at 0 % Ctrl. In addition, the “% Ctrl, EGFR(G719C)” value in assay [8] was determined as 87 % Ctrl.

As to `Cc1cc2c([nH]1)/C=C1\C(=O)Nc3cc(Cl)c(cc31)OCCO[C@@H](C(=O)NC1CCNCC1)CN(C)C2=O` [Ex. 134, [7R,16a(17)Z]-19-chloro-2,5-dimethyl-4,16-dioxo-N-(piperidin-4-yl)-4,5,6,7,9,10,15,16-octahydro-1H-12,14-(ethaneidylidene)dipyrrolo[3,2-i:3′,4′-l][1,4,7]dioxazacyclopentadecine-7-carboxamide], in assay [1], the “% Ctrl, ABL1(F317L)-nonphosphorylated” value is 62 % Ctrl and the “% Ctrl, ABL1(F317L)-phosphorylated” value came out at 57 % Ctrl. Further, in assay [2], the “% Ctrl, ABL1(H396P)-nonphosphorylated” value is reported as 25 % Ctrl and the “% Ctrl, ABL1(H396P)-phosphorylated” value was determined as 35 % Ctrl. In addition, the “% Ctrl, RET(M918T)” value in assay [3] is 32 % Ctrl. Also, in assay [4], the “% Ctrl, ABL1-nonphosphorylated” value came out at 46 % Ctrl and the “% Ctrl, ABL1-phosphorylated” value is 38 % Ctrl. Moreover, the “% Ctrl, PDGFRA” value in assay [5] stood at 72 % Ctrl. Besides, in assay [6], the “% Ctrl, KIT(L576P)” value is reported as 5.1 % Ctrl. For the same molecule, the “% Ctrl, FLT3(R834Q)” value in assay [7] was determined as 59 % Ctrl. The “% Ctrl, EGFR(G719C)” value in assay [8] worked out at 89 % Ctrl.
